Results: PubChem BioAssay AID2060501 (Molecular Pharmacology Branch, DTP, NCI, 2025)
“And” between values parts separate entries of the source, which are not always exact repeats. Identical values can stand only once.

System: 282377-053-R-J1-PDC complex spheroids, viability
Assay: Anticancer human tumor 282377-053-R-J1-PDC patient-derived colon adenocarcinoma cell line growth inhibition [GQUAD]
Settings: for viability, T/C: stronger effect = lower value
Excerpt: DNA G-quadruplex Stabilizer Agents in Combinations in Complex Spheroids
A high-throughput screen of multi-cell type tumor spheroids was designed to identify active combinations of DNA G-quadruplex stabilizer agents and targeted small molecules. Complex spheroids include a stromal component modeled by human endothelial cells (HUVEC) and fibroblasts modeled by human mesenchymal stem cells (MSCs). The concentration ranges selected for each drug and investigational agent were based upon clinically achievable concentrations if the clinical Cmax of the agent was known.
Compounds. The drugs and investigational agents: pidnarulex (CX-5461; NSC782164), APTO-253 (NSC789042), BRACO-19 (NSC847499), peposertib (NSC802822), ceralasertib (NSC780249), elimusertib (NSC800525), camonsertib (NSC841442), AZD-1390 (NSC803789), olaparib (NSC753686), talazoparib (NSC767125), ART-558 (NSC835418), sotorasib (NSC818433), MRTX-1133 (NSC836407), SN-38 (NSC673596), topotecan (NSC609699), etoposide (NSC141540), doxorubicin (NSC123127), gemcitabine (NSC613327), 5-fluorouracil (NSC19893), paclitaxel (NSC125973), vemurafenib (NSC761431), panobinostat (NSC761190), R-306465 (JNJ-16241199; NSC773264), adavosertib (NSC754352), TP-3654 (NSC805149), carboplatin (NSC241240), KSQ-4279 (NSC840948), and staurosporine (NSC755774) were obtained from the National Cancer Institute (NCI) Developmental Therapeutics Program Chemical Repository (34). The FDA-approved anticancer drug set is available from the NCI Developmental Therapeutics Program. […] The stock solutions were prepared in dimethyl sulfoxide (DMSO, Sigma-Aldrich, St. Louis, MO, cat. D2650) at 800-fold the tested concentration and stored at -70 degrees C prior to their use. All drugs and investigational agents were tested over a range starting from a high concentration at or near the clinical Cmax and decreasing in half-log increments. If the clinical Cmax for an agent had not been determined, the highest concentration tested was 10 microM.
2.3 Cell Culture. All cells were maintained in an incubator at 37 degrees C and 5% CO2 with 95% humidity. The PDC lines were cultured according to standard operating procedures established by the NCI PDMR. All PDCs were thawed and cultured in Matrigel-coated flasks prepared with a working solution of 1X Ham's F-12 nutrient mix, without supplementation (Invitrogen, cat. 11765054), 100 U/mL penicillin-streptomycin (Invitrogen, cat. 15140122), and 2.5% Matrigel (Corning Inc., cat. 354248) for the first three passages. The 857933-349-R-J2-PDC line was cultured in 6C/Colon 1B media, which includes advanced DMEM/F-12 (Thermo Fisher Scientific, cat. 12634028), 10 mM HEPES (Thermo Fisher Scientific, cat. 15630080), 1X GlutaMAX supplement (Thermo Fisher Scientific, cat. 35050061), 0.1 mg/mL primocin (InvivoGen, cat. ant-pm-2), 10% defined fetal bovine serum, heat inactivated (HyClone Laboratories Inc., cat. SH30070.03HI), 50% L-WRN conditioned media (ATCC, cat. CRL-3276), 1.25 mM N-Acetyl-L-cysteine (Sigma-Aldrich, cat. A9165), 10 mM nicotinamide (Sigma-Aldrich, cat. N0636), 1X B-27 supplement (Thermo Fisher Scientific, cat. 17504044), 1X N-2 supplement (Thermo Fisher Scientific, cat. 17502048), 10 microM Y-27632 dihydrochloride (Tocris Bioscience, cat. 1254), and 50 ng/mL human EGF recombinant protein (Thermo Fisher Scientific, cat. PHG0311). The 485176-168-R4-J1-PDC line was cultured in Panc media, which includes all 6C/Colon 1B media components plus 100 ng/mL human FGF-10 (Thermo Fisher Scientific, cat. 100-26), 500 nM SB-431542 (Selleckchem, cat. S1067), and gastrin (Tocris, cat. 3006).
[…]

[1] = compound alone, run of 04/22/2024
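Note: spheroids exposed to compounds for 7 days before readout.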
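Throughout, for viability, T/C: percent of vehicle DMSO control viability with 100% = untreated-like growth.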

Structure (SMILES) | viability, T/C (compound 0.1 µM) | viability, T/C (compound 3.16 µM) | IC50 [1] | viability, T/C (compound 0.0316 µM) | viability, T/C (compound 0.316 µM) | viability, T/C (compound 1 µM) | viability, T/C (compound 10 µM) | IC50 (curve of compound) | IC50 (compound alone, run of 04/16/2024) | viability, T/C (compound 0.000999 µM) | viability, T/C (compound 0.00316 µM) | viability, T/C (compound 0.00999 µM) | viability, T/C (compound 0.0999 µM)
CN(C)c1ccc(Nc2c3ccc(NC(=O)CCN4CCCC4)cc3nc3cc(NC(=O)CCN4CCCC4)ccc23)cc1 | 96.9% [middle of 12 runs] | 99.2% [middle of 12 runs] | > 10 µM |  |  |  |  |  |  |  |  |  | 
COc1cc(C2c3cc4c(cc3C(OC3OC5COC(C)OC5C(O)C3O)C3COC(=O)C23)OCO4)cc(OC)c1O (stereo not drawn) | 90.5% and 97% and 92.2% | 61.1% and 67.3% and 96.7% |  | 111% and 82.8% and 104% | 111% and 90.5% and 98.7% | 99.6% and 110% and 104% | 56.5% and 50% and 72.2% | > 10 µM |  |  |  |  | 
COc1ccc([C@@H](O)c2cc(-c3ncnc4cc(N5CCOCC5)ccc34)c(F)cc2Cl)nn1 | 85.6% and 80.6% and 90.8% | 68.9% and 82.5% and 101% |  | 86.5% and 96.3% and 89.9% | 74.5% and 109% and 86.2% | 67.9% and 79.6% and 93.6% | 57.6% and 61.8% and 71.7% | > 10 µM |  |  |  |  | 
COc1cccc2c1C(=O)c1c(O)c3c(c(O)c1C2=O)CC(O)(C(=O)CO)CC3OC1CC(N)C(O)C(C)O1 (stereo not drawn) | 110% and 102% and 101% | 15.7% and 29.5% and 13.9% |  | 109% and 108% and 110% | 92.8% and 109% and 77.7% | 54.2% and 77.3% and 56% | 1.35% and 2.21% and 0.95% | 1.13 µM and 1.94 µM and 1.01 µM |  |  |  |  | 
COc1ncnc(C2CC2)c1-c1ncc2cnn(Cc3ccc(-c4nc(C(F)(F)F)cn4C(C)C)cc3)c2n1 | 102% and 106% and 78.5% | 106% and 86.4% and 75.8% |  | 101% and 109% and 104% | 102% and 82.9% and 81.3% | 109% and 91.4% and 78.3% |  | > 10 µM and 5.29 µM |  |  |  |  | 
Cc1[nH]c2ccc(F)cc2c1-c1nc2c3cccnc3c3ncccc3c2[nH]1 |  |  | > 10 µM and 9.04 µM and 7.37 µM | 91.7% [middle of 12 runs] |  |  |  |  | > 10 µM and 8.36 µM and 8.06 µM |  |  |  | 
Cc1[nH]c2ccccc2c1CCNCc1ccc(/C=C/C(=O)NO)cc1 |  |  |  | 97.4% and 118% and 105% |  |  |  | > 0.316 µM and 0.185 µM and 0.145 µM |  | 108% and 110% and 106% | 88.2% and 101% and 95.5% | 84.7% and 96.6% and 98.5% | 115% and 98.6% and 72.2%
Cc1cccc(N(C)C(=O)C2C(O)CCN2c2nc(C)cc(C(F)(F)F)c2C#N)c1 (stereo not drawn) | 83% and 85.8% and 99.7% | 98.2% and 99.2% and 94.4% |  | 121% and 97.5% and 105% | 103% and 89.3% and 99.5% | 89.3% and 97.7% and 105% | 80.9% and 80.7% and 90.8% | > 10 µM |  |  |  |  | 
Cc1cnc(CNC(=O)c2c(=O)c3ccc(N4CCCN(C)CC4)nc3n3c2sc2ccccc23)cn1 |  | 57.2% [middle of 12 runs] |  |  |  | 64.5% [middle of 12 runs] | 55.2% [middle of 12 runs] |  |  |  |  |  | 
Cn1ncnc1[C@H]1c2n[nH]c(=O)c3cc(F)cc(c23)N[C@@H]1c1ccc(F)cc1 |  |  |  | 85% and 109% and 106% | 96.5% and 113% and 105% |  |  | > 0.316 µM |  | 109% and 105% and 89.3% | 106% and 88.2% and 91.4% | 106% and 94.9% and 99.7% | 106% and 97.6% and 113%
Nc1ccn(C2OC(CO)C(O)C2(F)F)c(=O)n1 (stereo not drawn) | 76% and 78.1% and 78.7% | 25.4% and 37.8% and 20.9% |  | 97% and 108% and 101% | 37.7% and 50.4% and 35.4% | 34.4% (2×) and 26.7% | 18.3% and 20.1% and 17.3% | 0.235 µM and 0.382 µM and 0.219 µM |  |  |  |  | 
O=C(NO)c1cnc(N2CCN(S(=O)(=O)c3ccc4ccccc4c3)CC2)nc1 | 20% and 107% and 82% | 24.6% and 0.24% and 0.11% |  | 58.1% and 117% and 100% | 22.4% and 79.1% and 64.8% | 21.8% and 2.34% and 0.84% | 25.1% and 0.26% and 0.18% |  |  |  |  |  | 
O=C(c1cc(Cc2n[nH]c(=O)c3ccccc23)ccc1F)N1CCN(C(=O)C2CC2)CC1 | 111% and 100% and 110% | 116% and 100% and 111% |  | 98.7% and 97.4% and 108% | 100% and 98.7% and 102% | 93.8% and 105% and 109% | 106% and 82.9% and 90.7% | > 10 µM |  |  |  |  | 
O=c1[nH]cc(F)c(=O)[nH]1 | 107% (2×) and 88.7% | 87.9% and 80.7% and 79.4% |  | 94.9% and 109% and 94.2% | 107% and 102% and 96.5% | 88.8% and 92.9% and 94.9% | 80.8% and 69.7% and 70.6% | > 10 µM |  |  |  |  | 
